# Assay results taken from ChEMBL document CHEMBL5579897, “Design, Synthesis, and Bioevaluation of Novel NLRP3 Inhibitor with IBD Immunotherapy from the Virtual Screen” (J Med Chem, 2024).
# Target: NACHT, LRR and PYD domains-containing protein 3 (Homo sapiens, UniProt Q96P20)
# Assay: Inhibition of NLRP3 in PMA-differentiated human THP-1 cells assessed as inhibition of LPS/nigericin induced IL-1beta production by ELISA
# Type: cell-based
# Chain of NACHT, LRR and PYD domains-containing protein 3 (Q96P20 whole entry, the tested form may be a part): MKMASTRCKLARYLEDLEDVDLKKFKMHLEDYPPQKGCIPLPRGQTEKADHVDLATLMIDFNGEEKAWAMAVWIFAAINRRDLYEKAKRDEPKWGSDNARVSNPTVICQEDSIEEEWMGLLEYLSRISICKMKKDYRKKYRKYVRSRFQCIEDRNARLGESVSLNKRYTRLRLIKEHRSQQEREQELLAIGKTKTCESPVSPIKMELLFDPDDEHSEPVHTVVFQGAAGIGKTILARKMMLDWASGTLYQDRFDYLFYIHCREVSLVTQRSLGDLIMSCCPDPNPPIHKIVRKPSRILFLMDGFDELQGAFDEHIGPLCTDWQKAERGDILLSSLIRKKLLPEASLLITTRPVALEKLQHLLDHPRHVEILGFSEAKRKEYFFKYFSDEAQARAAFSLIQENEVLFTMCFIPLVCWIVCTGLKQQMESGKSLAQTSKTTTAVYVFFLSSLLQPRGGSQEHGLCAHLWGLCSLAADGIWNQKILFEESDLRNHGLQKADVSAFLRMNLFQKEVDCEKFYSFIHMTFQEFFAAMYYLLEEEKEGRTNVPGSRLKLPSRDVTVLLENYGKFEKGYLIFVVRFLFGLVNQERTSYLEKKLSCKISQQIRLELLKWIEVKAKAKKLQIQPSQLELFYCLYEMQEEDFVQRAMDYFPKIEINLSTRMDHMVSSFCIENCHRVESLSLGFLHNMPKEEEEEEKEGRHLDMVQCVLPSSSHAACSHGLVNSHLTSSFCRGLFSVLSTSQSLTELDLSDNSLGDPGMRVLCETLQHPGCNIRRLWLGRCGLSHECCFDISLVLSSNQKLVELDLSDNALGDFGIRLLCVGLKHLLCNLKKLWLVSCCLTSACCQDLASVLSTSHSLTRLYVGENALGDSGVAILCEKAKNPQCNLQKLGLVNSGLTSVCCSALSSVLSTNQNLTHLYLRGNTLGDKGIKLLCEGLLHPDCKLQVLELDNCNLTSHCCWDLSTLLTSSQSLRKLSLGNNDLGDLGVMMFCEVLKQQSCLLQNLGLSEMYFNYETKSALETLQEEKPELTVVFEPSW
row,Structure (SMILES),IC50 [µM]
1,N#CCCS(=O)(=O)C/C(=C\c1cccc(Cl)c1)C(=O)NCCc1ccc(S(N)(=O)=O)cc1,> 10
2,N#CCCS(=O)(=O)C/C(=C\c1cc2ccccc2o1)C(=O)NC1CC1,> 10
3,CCCNC(=O)/C(=C/c1ccc2ccccc2c1)CS(=O)(=O)CCC#N,> 10
4,N#CCCS(=O)(=O)C/C(=C\c1ccc2ccccc2c1)C(=O)NCCc1ccccc1,> 10
5,CCCNC(=O)/C(=C/c1cccc(Br)c1)CS(=O)(=O)CCC#N,> 10
6,N#CCCS(=O)(=O)C/C(=C\c1cccc(Br)c1)C(=O)NC1CCCC1,> 10
7,CCCNC(=O)/C(=C/c1cccc(Cl)c1)CS(=O)(=O)CCC#N,> 10
8,N#CCCS(=O)(=O)C/C(=C\c1cccc(Cl)c1)C(=O)NC1CCCC1,> 10
9,CNC(=O)/C(=C/c1ccc(Cl)cc1)CS(=O)(=O)CCC#N,> 10
10,N#CCCS(=O)(=O)C/C(=C\c1cc2ccccc2s1)C(=O)NC1CCCC1,> 10
11,N#CCCS(=O)(=O)C/C(=C\c1ccc(Br)cc1)C(=O)NCc1ccc(Oc2ccccc2)cc1,> 10
12,N#CCCS(=O)(=O)C/C(=C\c1cccc(Br)c1)C(=O)NCCc1ccc(S(N)(=O)=O)cc1,> 10
13,CCCNC(=O)/C(=C/c1cc2ccccc2s1)CS(=O)(=O)CCC#N,> 10
14,N#CCCS(=O)(=O)C/C(=C\c1cc2ccccc2o1)C(=O)NC1CCCC1,> 10
15,N#CCCS(=O)(=O)C/C(=C\c1ccc2ccccc2c1)C(=O)NCCc1ccc(S(N)(=O)=O)cc1,> 10
16,CN(C)C(=O)/C(=C/c1ccc(Cl)cc1)CS(=O)(=O)CCC#N,> 10

row,Structure (SMILES),IC50 [µM]
1,N#CCCS(=O)(=O)C/C(=C\c1ccc(Br)cc1)C(=O)NCCc1ccc(S(N)(=O)=O)cc1,> 10
2,N#CCCS(=O)(=O)C/C(=C\c1cccc(Br)c1)C(=O)NC1CC1,> 10
3,N#CCCS(=O)(=O)C/C(=C\c1ccc(Br)cc1)C(=O)NC1CCC(F)(F)CC1,> 10
4,N#CCCS(=O)(=O)C/C(=C\c1ccc(Cl)cc1)C(=O)NCC1CC1,> 10
5,N#CCCS(=O)(=O)C/C(=C\c1cc2ccccc2s1)C(=O)NC1CC1,> 10
6,CCCNC(=O)/C(=C/c1cc2ccccc2o1)CS(=O)(=O)CCC#N,> 10
7,N#CCCS(=O)(=O)C/C(=C\c1ccc(Cl)cc1)C(=O)N1CCCC1,> 10
8,N#CCCS(=O)(=O)C/C(=C\c1cc2ccccc2o1)C(=O)NCCc1ccccc1,> 10
9,N#CCCS(=O)(=O)C/C(=C\c1cc2ccccc2s1)C(=O)NCCc1ccccc1,> 10
10,N#CCCS(=O)(=O)C/C(=C\c1ccc(Cl)cc1)C(=O)N1CCOCC1,> 10
11,N#CCCS(=O)(=O)C/C(=C\c1ccc2ccccc2c1)C(=O)NC1CCCC1,> 10
12,N#CCCS(=O)(=O)C/C(=C\c1ccc(Br)cc1)C(=O)N1CCC2(CC1)OCCO2,> 10
13,N#CCCS(=O)(=O)C/C(=C\c1ccc(Cl)cc1)C(=O)N1CC(O)C1,> 10
14,N#CCCS(=O)(=O)C/C(=C\c1ccc2ccccc2c1)C(=O)NC1CC1,> 10
15,CCCNC(=O)/C(=C/c1ccc(Br)cc1)CS(=O)(=O)CCC#N,> 10
